This note sets out measurements from PubChem BioAssay (NCI).

Molecules are shown by their SMILES.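 Dose response: 5 concentrations. Exposure: 48 h. Format: 96-well plates. Endpoint: linear interpolation; highest concentration if not reached. GI50 marks 50% less growth. TGI denotes the concentration required for complete inhibition of growth.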 A value given as a limit tells only on which side of the number the result lay.

Among the test systems are A549 NSCLC; LOX IMVI melanoma; M14 melanoma; MALME-3M melanoma; NCI-H23 lung; NCI-H460 lung; OVCAR-3 ovarian; OVCAR-4 ovarian; SN12C renal; UACC-257 melanoma.
Assay in all cases: DTP human tumour cell line panel, 48 h

On to `Clc1ccc2c(NCCNc3nc(N4CCOCC4)nc4ccccc34)ccnc2c1`, for which the GI50 was 2.96 µM in the test on A549 NSCLC; 1.8 µM in the test with LOX IMVI melanoma; 1.94 µM in the test with M14 melanoma; 1.97 µM in the test with MALME-3M melanoma; 4.08 µM with NCI-H23 lung; 2.03 µM in the test with NCI-H460 lung. Further, the GI50 in the test with OVCAR-3 ovarian is 1.84 µM; in the test with OVCAR-4 ovarian, 2.46 µM; in the test with SN12C renal, 2.75 µM; with UACC-257 melanoma, 2.07 µM. Besides, the TGI with A549 NSCLC was determined as 10.6 µM; with LOX IMVI melanoma, 3.45 µM; in the test on M14 melanoma, 3.89 µM; with MALME-3M melanoma, 3.89 µM; in the test on NCI-H23 lung, 17.8 µM; in the test on NCI-H460 lung it was 4.16 µM. In addition, the TGI in the test with OVCAR-3 ovarian came out at 3.53 µM; in the test with OVCAR-4 ovarian, 6.17 µM; in the test on SN12C renal it was 7.69 µM; in the test on UACC-257 melanoma, 4.33 µM.
For the compound `O=c1[nH]c2cc(Cl)ccc2nc1/C(=N\Nc1ccccc1)C(O)c1ccc2c(c1)OCO2` (stereo not drawn), the concentration for total growth inhibition (TGI) in the test on A549 NSCLC, in the test on LOX IMVI melanoma, with M14 melanoma, in the test with MALME-3M melanoma, in the test with NCI-H23 lung and with NCI-H460 lung was over 100 µM each time. Moreover, the TGI with OVCAR-3 ovarian, in the test with OVCAR-4 ovarian, in the test on SN12C renal and with UACC-257 melanoma was over 100 µM each time.
`CC1NOC(=O)C1N=Nc1cccc(Cl)c1` (stereo not drawn): the total growth inhibition concentration (TGI) in the test on A549 NSCLC, with LOX IMVI melanoma, in the test on M14 melanoma, with MALME-3M melanoma, in the test with NCI-H23 lung and in the test on NCI-H460 lung was over 100 µM throughout. Also, the TGI with OVCAR-3 ovarian was 60.4 µM; with OVCAR-4 ovarian it was over 100 µM; in the test with SN12C renal, over 100 µM; in the test with UACC-257 melanoma, over 100 µM.
For the compound `COc1ccc2nc3ccccc3c(NCCNCCO)c2c1`, the GI50 with A549 NSCLC was 0.673 µM; in the test with LOX IMVI melanoma, 0.404 µM; in the test with M14 melanoma, 0.709 µM; in the test on MALME-3M melanoma, 0.382 µM; in the test on NCI-H23 lung, 0.762 µM; in the test with NCI-H460 lung, 0.341 µM. In addition, the GI50 was 0.624 µM with OVCAR-3 ovarian, 0.836 µM in the test on OVCAR-4 ovarian, 0.533 µM with SN12C renal and 0.655 µM in the test on UACC-257 melanoma. Also, the TGI in the test on A549 NSCLC was 7.81 µM; with LOX IMVI melanoma, 3.75 µM; in the test on M14 melanoma it was 2.24 µM; in the test on MALME-3M melanoma, 1.88 µM; in the test with NCI-H23 lung, 3.53 µM; in the test on NCI-H460 lung, 1.92 µM. For the same compound, the TGI in the test with OVCAR-3 ovarian came out at 2.77 µM; in the test on OVCAR-4 ovarian, 3.26 µM; in the test with SN12C renal, 7.7 µM; in the test on UACC-257 melanoma, 2.34 µM.
Consider `COC(=O)C1=NC(=S)NC(c2ccccc2)C1c1nc2ccccc2o1` (stereo not drawn), for which the total growth inhibition concentration (TGI) with A549 NSCLC, in the test on LOX IMVI melanoma, in the test with M14 melanoma, in the test on MALME-3M melanoma, in the test on NCI-H23 lung and with NCI-H460 lung was over 50 µM throughout. Moreover, the TGI in the test with OVCAR-3 ovarian, with OVCAR-4 ovarian, in the test with SN12C renal and with UACC-257 melanoma was over 50 µM in each case.
Regarding `CCOc1ccc(NC(=O)CC2SC(=Nc3ccc(C)cc3)NC2=O)cc1` (stereo not drawn), the TGI with A549 NSCLC, in the test with LOX IMVI melanoma, with M14 melanoma, with MALME-3M melanoma, in the test on NCI-H23 lung and in the test on NCI-H460 lung was over 100 µM throughout. Also, the TGI in the test on OVCAR-3 ovarian, in the test with OVCAR-4 ovarian, with SN12C renal and with UACC-257 melanoma was over 100 µM in each case.
For the compound `CCn1cc(C(=O)O)c(=O)c2cc(F)c(N3CCN(S(=O)(=O)c4ccc(Cl)cc4Cl)CC3)cc21`, the GI50 in the test with A549 NSCLC was 2.89 µM; in the test with LOX IMVI melanoma it was 1.48 µM; in the test on M14 melanoma, 3.24 µM; in the test with MALME-3M melanoma, 1.94 µM; in the test with NCI-H23 lung, 2.33 µM; with NCI-H460 lung, 3.13 µM. The GI50 in the test on OVCAR-3 ovarian is 2.54 µM; in the test on OVCAR-4 ovarian it was 2.58 µM; in the test with SN12C renal, 2.77 µM; with UACC-257 melanoma, 2.65 µM. The total growth inhibition concentration (TGI) in the test with A549 NSCLC was over 100 µM; with LOX IMVI melanoma it was 3.08 µM; in the test with M14 melanoma, 10.8 µM; in the test on MALME-3M melanoma, 4.17 µM; in the test with NCI-H23 lung it was 5.97 µM; in the test on NCI-H460 lung it was 15.9 µM. The TGI in the test on OVCAR-3 ovarian was 5.79 µM; in the test on OVCAR-4 ovarian it was over 100 µM; with SN12C renal it was over 100 µM; in the test on UACC-257 melanoma, 7.93 µM.
`CC(C)(C)N/N=C(/Cc1nc2c3c(ccc2[nH]c1=O)C(=O)c1ccccc1C3=O)C(=O)NC1=C(Cl)C(=O)c2ccccc2C1=O`: the TGI in the test with A549 NSCLC is over 100 µM; in the test on LOX IMVI melanoma, over 100 µM; with M14 melanoma, over 100 µM; in the test with MALME-3M melanoma, 37.8 µM; in the test on NCI-H23 lung, over 100 µM; in the test with NCI-H460 lung, 31.3 µM. For the same compound, the TGI was over 100 µM in the test with OVCAR-3 ovarian, 61.6 µM in the test with OVCAR-4 ovarian, over 100 µM in the test on SN12C renal and over 100 µM with UACC-257 melanoma.
For `Clc1ccc(C=Nc2ccc(-c3nc4ccccc4[nH]3)cc2)cc1`, the GI50 in the test on A549 NSCLC, in the test with LOX IMVI melanoma, in the test on M14 melanoma, in the test with MALME-3M melanoma, with NCI-H23 lung and with NCI-H460 lung was over 100 µM throughout. Besides, the GI50 in the test with OVCAR-3 ovarian, in the test on OVCAR-4 ovarian, with SN12C renal and in the test with UACC-257 melanoma was over 100 µM each time. Moreover, the TGI with A549 NSCLC, with LOX IMVI melanoma, with M14 melanoma, with MALME-3M melanoma, in the test on NCI-H23 lung and in the test on NCI-H460 lung was over 100 µM each time. The total growth inhibition concentration (TGI) with OVCAR-3 ovarian, in the test on OVCAR-4 ovarian, with SN12C renal and in the test on UACC-257 melanoma was over 100 µM in each case.
Regarding `COC(=O)Cc1cc(=O)n2c3ccccc3n(C)c2c1C#N`, the TGI with A549 NSCLC, in the test on LOX IMVI melanoma, in the test on M14 melanoma, in the test with MALME-3M melanoma, in the test with NCI-H23 lung and in the test with NCI-H460 lung was over 100 µM each time. In addition, the TGI with OVCAR-3 ovarian, in the test on OVCAR-4 ovarian, in the test with SN12C renal and in the test with UACC-257 melanoma was over 100 µM each time.
Take `COc1cc(N=Nc2cc(Cc3ccc(N(C)C)cc3)c(N)cc2N(C)C)c2ncccc2c1`: the GI50 was 0.494 µM in the test with A549 NSCLC; 0.465 µM with LOX IMVI melanoma; 0.34 µM in the test on M14 melanoma; 0.621 µM in the test with MALME-3M melanoma; 0.287 µM in the test with NCI-H23 lung; 0.519 µM in the test with NCI-H460 lung. Besides, the concentration for 50% growth inhibition (GI50) is 0.0406 µM in the test on OVCAR-3 ovarian, 0.175 µM in the test on OVCAR-4 ovarian, 0.649 µM in the test with SN12C renal and 0.438 µM with UACC-257 melanoma. Further, the concentration for total growth inhibition (TGI) in the test on A549 NSCLC was determined as 2.39 µM; with LOX IMVI melanoma, 1.87 µM; in the test with M14 melanoma, 1.58 µM; with MALME-3M melanoma it was 2.28 µM; in the test with NCI-H23 lung, 1.34 µM; in the test on NCI-H460 lung, 1.91 µM. The TGI in the test on OVCAR-3 ovarian came to 1.08 µM; in the test on OVCAR-4 ovarian it was 0.549 µM; with SN12C renal, 2.32 µM; in the test with UACC-257 melanoma it was 5.22 µM.
On to `COc1cccc(C2CC(=O)Nc3c2c(C)nn3-c2nc3ccccc3[nH]2)c1OC` (stereo not drawn), for which the GI50 in the test on A549 NSCLC is 3.5 µM; in the test on LOX IMVI melanoma, 3.65 µM; with M14 melanoma, 4.45 µM; in the test on MALME-3M melanoma, 7.97 µM; in the test on NCI-H23 lung, 2.53 µM; in the test on NCI-H460 lung, 3.09 µM. Also, the GI50 in the test on OVCAR-3 ovarian is 4.55 µM; with OVCAR-4 ovarian, 6.92 µM; with SN12C renal it was 4.29 µM; with UACC-257 melanoma it was 5.77 µM. Besides, the total growth inhibition concentration (TGI) in the test with A549 NSCLC is 28.6 µM; in the test on LOX IMVI melanoma, 12.9 µM; with M14 melanoma, 30.3 µM; in the test with MALME-3M melanoma it was 39 µM; in the test with NCI-H23 lung, 7.54 µM; in the test on NCI-H460 lung, 10.2 µM. Further, the total growth inhibition concentration (TGI) was 19.8 µM with OVCAR-3 ovarian, over 91.3 µM in the test with OVCAR-4 ovarian, 48.3 µM in the test with SN12C renal and 39.8 µM in the test on UACC-257 melanoma.
For `CC1(C)CC(O)CC(C)(C)N1O`, the TGI in the test on A549 NSCLC, with LOX IMVI melanoma, in the test on M14 melanoma, with MALME-3M melanoma, in the test with NCI-H23 lung and in the test on NCI-H460 lung was over 100 µM throughout. Moreover, the concentration for total growth inhibition (TGI) in the test with OVCAR-3 ovarian, in the test with OVCAR-4 ovarian, in the test with SN12C renal and in the test on UACC-257 melanoma was over 100 µM throughout. For the same compound, the GI50 with LOX IMVI melanoma, in the test with NCI-H23 lung and with OVCAR-4 ovarian was over 100 µM throughout.
As for `Cc1nc2c(C)ccc([N+](=O)[O-])c2c(NCCCN(C)C)c1C`, the TGI in the test with A549 NSCLC was over 100 µM; in the test with LOX IMVI melanoma it was over 100 µM; in the test on M14 melanoma it was 37.6 µM; in the test with MALME-3M melanoma, over 55.3 µM; with NCI-H23 lung, over 100 µM; in the test with NCI-H460 lung, over 100 µM. For the same compound, the total growth inhibition concentration (TGI) in the test with OVCAR-3 ovarian was over 100 µM; in the test on OVCAR-4 ovarian it was over 100 µM; in the test with SN12C renal, over 100 µM; in the test with UACC-257 melanoma, 54.5 µM.

In general, GI50 refers to the concentration at which growth is held to half of that of the control. Usually TGI stands for the concentration at which net growth stops. High values mean lower sensitivity of the cells, low ones greater sensitivity of the cells.
